Test results taken from patent US20220098547A1, “HYDROGEL BIOMIMETIC FOR INVASIVE DISEASES” (priority 2018, published 2022).

How the values were obtained:
TSC2+/− LAM-SMCs [1] = assay: Cell invasion into 3D HA hydrogels, LAM-SMCs; format: cell-based, human; settings: for invasion, selectivity towards LAM-SMCs vs control SMCs: 80 kinase inhibitor screen, 5 μM, 384-well 3D hydrogel
Procedure: (§1) HA (230 kDa) was functionalized with furfurylamine as previously described^[16] Furanyl-modified HA/MMPx-(maleimide)2 hydrogels were prepared as previously described ^[16] with the following modifications: To prepare 1.0 mL of 0.9% HA hydrogel with 25 μM vitronectin peptide for SMC culture, HA-furanyl (65% furanyl substitution, 9.0 mg HA, 13.3 μmol furanyl) was dissolved in 450 μL of dPBS (adjusted to pH 6.5), and added to 357.7 μL of dPBS (pH 6.5). 150.1 μL of maleimide2-MMP-degradable crosslinker peptide dissolved in 0.1 M MES buffer (pH 5.5, 50 mg/mL, 2.8 μmol of peptide, 5.6 μmol of maleimide) and 3.75 μL of maleimide-vitronectin peptide dissolved in 0.1 M MES buffer (pH 5.5, 12 mg/mL, 25 nmol) were added to the HA-furanyl solution and carefully mixed to prevent the formation of air bubbles. 38.5 μL of a thiolated methyl cellulose solution (2.6 mg/mL MC-SH in DI H2O, 100 nmolfree thiols/mgMC) was then added to this solution and mixed carefully with a pipette. Hydrogel formulations were tuned for lung cancer cells. For culturing primary cells from lung cancer tissue biopsies, 100 μM vitronectin peptides were used. For NCI-H1299, NCI-H446 and human bronchial epithelial cells, 100 μM vitronectin peptides and 100 μM fibronectin peptides were used. To prepare gels in 384-well plates, 15 μL of the hydrogel solutions were added to each well in a 384-well plate and placed in the incubator overnight at 37° C.
(§2) Excess sterile water was then added to wells lining the outside of the plates to prevent hydrogel evaporation. […] Gels were then equilibrated with either RPMI-1640 containing 1% FBS (for lung cancer cells) or M231 SMC media (75 μL, >45 mins). Media was then removed, and for SMC culture, 15 μL of M231 supplemented with 25% SMGS (containing a final FBS concentration of 1%) was added into each well for at least 1 h prior to cell seeding. For drug treatment assays, this 15 μL volume of M231 with 25% SMGS also includes a 5× concentration of the desired drug. For larger drug screening assays, Y-27632 (Rock inhibitor, 10 μM) was used as a negative control for cell invasion, and verteporfin (1 μM) was used as a positive control for cell toxicity (SyTox Green staining). For lung cancer cell culture, cells in RPMI media containing 1% FBS was added to each well.
(§3) SMCs were cultured according to reported protocols.^[12a] In brief, cells were cultured in M231 media with Smooth Muscle Growth Supplement (SMGS) and gentamycin (ThermoFisher Scientific) at 37° C. with 5% CO2. Cells were passaged using 0.05% trypsin/EDTA for 3 min at 37° C., and inhibited using M231 media. 3000 cells in 45 μL of M231 without SMGS were added to each well of a 384-well plate containing 3D HA hydrogels.
(§4) After 5 days of culture in 3D HA gels, 30 μL media was carefully removed. To each well, 20 μL of a solution containing SyTox Green (1/50,000) in PBS was added and incubated for 1.5 h at 37° C. Gels were then carefully washed with PBS twice. Cells were then fixed with 4% PFA for 1.5 h in the dark at room temperature. PFA was removed and gels were washed with PBS. A solution of Hoechst (1/1000, 20 μL) was then added to each well for at least 1.5 h in the dark, followed by washing with PBS (3 times). To label the gel surface, fluorescent microspheres (100 nm, orange, Phosphorex) were diluted in PBS (1/100) and centrifuged to separate larger, aggregated microspheres. 20 μL of the resulting supernatant were then added to each well and the 384-well plate was left undisturbed overnight. For drug screening experiments involving treatment with 80 drugs simultaneously, silica gel particles (40-63 μm, 230-400 mesh, SiliCycle) were used to label the […]. A slurry solution (5 mg/mL) of silica gel particles in PBS containing 0.01% sodium azide was mixed and immediately added to each well. Particles settled after 20 seconds and plates could be immediately imaged.
(§5) Z-stacked images were obtained using a Cellomics high content imaging instrument as described above. […]

TSC2+/− LAM-SMCs [2] = assay: Cell viability (SyTox Green), LAM-SMCs; format: cell-based, human; settings: for cell viability, selectivity towards LAM-SMCs vs control SMCs: 80 kinase inhibitor screen, 5 μM, 384-well 3D hydrogel
Procedure: as §1, §2, §3, §4, §5

TSC2+/+ control SMCs = assay: Cell invasion into 3D HA hydrogels, control SMCs; format: cell-based, human; settings: Y-27632 treatment (10 μM per FIG. 8 legend)
Procedure: as §1, with “To prepare gels in 384-well plates, 15 μL of the hydrogel solutions were added to each well in a 384-well plate and placed in the incubator overnight at 37° C.” left out

MMP9 = assay: Gelatin zymography of conditioned media (MMP9 secretion), LAM-SMCs; format: cell-based, human; settings: Y-27632 treatment (10 μM per FIG. 8 legend)
Procedure: After 1 day of culture, conditioned media from 384-well plates was collected from each well for gelatin zymography. 8% polyacrylamide (PA) gels were used, and were prepared as previously described^[22] In general, the separating gel component of the zymography gels comprised 7.5 mL of 1.5 M Tris buffer (pH 8.8), 8.0 mL polyacrylamide solution (30%), 10.2 mL gelatin A (3 mg/mL), 2.7 mL water, 300 μL SDS, 300 μL 10% ammonium persulfate, and 36 μL TEMED. The separating gel was allowed to gel for 40 min at room temperature. The stacking gel was then prepared by mixing 5.0 mL of 0.5 M Tris buffer (pH 6.8), 2.6 mL polyacrylamide solution (30%), 12.2 mL water, 200 μL SDS, 150 μL 10% ammonium persulfate, and 30 μL TEMED. The stacking gel was poured on top of each gel and allowed to sit for 40 mins.
For each sample, 12 μL of conditioned media was mixed with 3 μL loading dye, and 12 μL was loaded into each lane. Running buffer comprising 25 mM Tris, 190 mM glycine and 0.1% SDS was used for gel electrophoresis. Following protein separation on the PA gels, gels were washed in 2.5% Triton X (3 times, 10 min each) to remove residual SDS, followed by DI water (5 times, 30 min each). Gels were then placed in an incubation buffer (50 mM Tris buffer pH 7.5 containing 5 mM CaCl2, 200 mM NaCl) and incubated at 37° C. overnight. […]

VEGF-A = settings: some glioblastoma patients; cited from earlier work
Chain of VEGF-A (P15692 207-311 limits assumed): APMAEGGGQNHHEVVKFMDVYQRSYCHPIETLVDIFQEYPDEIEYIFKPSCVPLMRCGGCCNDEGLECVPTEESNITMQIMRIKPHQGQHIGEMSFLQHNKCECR

CN1CCC(c2c(O)cc(O)c3c(=O)cc(-c4ccccc4Cl)oc23)C1CO (single isomer, unassigned; (+)) [(+)-P276]
invasion, selectivity towards LAM-SMCs vs control SMCs (TSC2+/− LAM-SMCs [1]): selective decrease | cell viability, selectivity towards LAM-SMCs vs control SMCs (TSC2+/− LAM-SMCs [2]): selective decrease

CC(C)CC(=O)Nc1[nH]nc2c1CN(C(=O)C1CCN(C)CC1)C2(C)C [PHA-793887]
invasion, selectivity towards LAM-SMCs vs control SMCs (TSC2+/− LAM-SMCs [1]): selective decrease | cell viability, selectivity towards LAM-SMCs vs control SMCs (TSC2+/− LAM-SMCs [2]): selective decrease

C[C@@H](N)[C@H]1CC[C@H](C(=O)Nc2ccncc2)CC1 [Y-27632]
cell invasion (TSC2+/− LAM-SMCs [1]; Y-27632 treatment (10 μM per FIG. 8 legend), LAM-SMCs): significantly decreased cell invasion | cell invasion (TSC2+/+ control SMCs): significantly decreased cell invasion | cell viability (TSC2+/− LAM-SMCs [2]; Y-27632 treatment (10 μM per FIG. 8 legend), LAM-SMCs, 3D HA gels): neither cell viability nor MMP9 secretion levels of LAM-SMCs were affected | MMP9 secretion levels (MMP9): neither cell viability nor MMP9 secretion levels of LAM-SMCs were affected

Nc1nc(Nc2ccc(S(N)(=O)=O)cc2)nn1C(=S)Nc1c(F)cccc1F [Cdk1/2 inhibitor]
invasion, selectivity towards LAM-SMCs vs control SMCs (TSC2+/− LAM-SMCs [1]): selective decrease | cell viability, selectivity towards LAM-SMCs vs control SMCs (TSC2+/− LAM-SMCs [2]): selective decrease

CNC(=O)[C@H](Cc1c[nH]c2ccccc12)NC(=O)[C@@H](CC(=O)NO)CC(C)C [GM6001]
cell invasion (TSC2+/− LAM-SMCs [1]; 10 μM, invasive LAM-SMCs, 3D hydrogels): modest, yet statistically significant decrease in cell invasion

TC-A 2317 NCI
invasion, selectivity towards LAM-SMCs vs control SMCs (TSC2+/− LAM-SMCs [1]): selective decrease | cell viability, selectivity towards LAM-SMCs vs control SMCs (TSC2+/− LAM-SMCs [2]): selective decrease

bevacizumab
tumor metastasis (VEGF-A): increased tumor metastasis | tumor size (VEGF-A): decreased tumor sizes

Cc1ncc(-c2ccnc(Nc3ccc(S(C)(=O)=O)cc3)n2)n1C(C)C [AZD5438]
invasion, selectivity towards LAM-SMCs vs control SMCs (TSC2+/− LAM-SMCs [1]): selective decrease | cell viability, selectivity towards LAM-SMCs vs control SMCs (TSC2+/− LAM-SMCs [2]): selective decrease

Cc1cc(Nc2cc(N3CCN(C)CC3)nc(/C=C/c3ccccc3)n2)n[nH]1 [ENMD-2076]
invasion, selectivity towards LAM-SMCs vs control SMCs (TSC2+/− LAM-SMCs [1]): selective decrease | cell viability, selectivity towards LAM-SMCs vs control SMCs (TSC2+/− LAM-SMCs [2]): selective decrease
